From publication PMC2579677 (British Journal of Cancer, 2008)
Values joined by “and” are separate entries in the source; they are usually repeats but may differ in a detail not shown here. Identical values can stand only once. Like-named read-outs stand apart in the source and are kept apart here.

What was measured:
[1] = test system: MDA-MB-231 xenograft tumours; assay: MDA-MB-231 xenograft tumour growth inhibition; details: 21 days
[2] = cited from earlier work
[3] = test system: bFGF-stimulated angiogenesis in Matrigel plugs; design: method as in Chander et al, 2007; details: ref Chander et al, 2007, cited from earlier work
[4] = test system: bFGF-stimulated angiogenesis in Matrigel plugs; assay: In vivo angiogenesis assay (bFGF-supplemented Matrigel plug, FITC-dextran); design: species or system C57BL/6J mice; details: for reduction of level of angiogenesis: 10 mg kg^−1 orally daily for four days, compared with bFGF-only
Procedure: The antiangiogenic potential of STX243 was assessed using a modified Matrigel plug assay as described earlier ([Passaniti et al, 1992]; [Prewett et al, 1999]; [Chander et al, 2007]). The female C57BL/6J mice used in this study were obtained from Harlan (Bicester). The mice were anaesthetised, placed on a heated pad (37°C) and 0.5 ml of ice-cold Matrigel supplemented with 500 ng of basic fibroblast growth factor (bFGF) was injected subcutaneously into the flanks of each mouse. Control mice received Matrigel without bFGF. The mice were subsequently weighed before returning the mice to their isolator. After 24 h of Matrigel injection, the mice were placed into the following treatment groups: control, bFGF-only, bFGF plus STX140 (10 mg kg^−1, orally) and bFGF plus STX243 (10, 20 or 40 mg kg^−1, orally). Control and bFGF-only animals were dosed orally with vehicle (10% THF, 90% PG). The animals were dosed every day for four days with five animals per treatment group. Quantification of the blood vessels within the Matrigel plugs was facilitated through the intravenous injection of 100 μl of 0.25 mg ml^−1 FITC-dextran (250 000 molecular weight) seven days after the Matrigel injection. FITC-dextran injection allows for visualisation of the blood vessels that has been recently formed in the matrigel plugs. The animals were killed 20 min after the injection of the FITC-dextran. The mice were subsequently weighed and the Matrigel plugs were removed. The Matrigel plugs were photographed and subsequently dissolved in 1 ml Dispase reagent for 16 h at 37°C. The resulting mixture was centrifuged at 15 700 g (20°C) for 30 s. The fluorescence of the supernatant was measured using a FLUOstar OPTIMA fluorimeter (BMG Labtech Ltd., Aylesbury, Bucks, UK). The excitation and emission wavelengths used were 480 and 520 nm, respectively. The fluorescence of the samples was quantitated using a standard curve of FITC-dextran (0.4–25 μg ml^−1).

[5] = design: method as in Foster et al, 2008; details: single oral administration; ref Foster et al, 2008; cited from earlier work
[6] = test system: human umbilical vein endothelial cell (HUVEC); design: method as in Newman et al, 2004; details: ref Newman et al, 2004; cited from earlier work
[7] = test system: range of cell lines; details: 2003, 2005, cited from earlier work; for difference in antiproliferative activity relative to 2-MeOE2: some investigations, ref Day et al, Wood et al, 2004, Leese et al
[8] = test system: MCF-7dox40 xenograft tumours; design: method as in Newman et al, 2008; details: ref Newman et al, 2008; cited from earlier work
[9] = test system: MCF-7dox40 xenograft tumours; assay: Paclitaxel-resistant MCF-7dox40 xenograft tumour growth inhibition; format: in vivo, MF-1 nu/nu mice; details: 28 days
[10] = test system: HUVECs; assay: In vitro angiogenesis kit: VEGF-stimulated vessel formation in HUVEC/fibroblast coculture; format: cell-based, human; details: VEGF 2 ng ml^−1 stimulated, day 11
Procedure: The effects of the compounds on in vitro vessel formation were assessed using an angiogenesis kit (TCS Cellworks, Claydon, UK). For this assay, HUVECs (obtained from TCS Cellworks) were cultured in a 24-well plate within a matrix of human diploid fibroblasts of dermal origin in an optimised medium (TCS Cellworks) supplemented with 2 ng ml^−1 vascular endothelial growth factor (VEGF). The cocultured cells were incubated throughout the experiment at 37°C under 5% CO2 in a humidified incubator. On day 1, the culture medium was removed and replaced with medium containing the compounds under investigation. The vehicle used for the dilution of compound was tetrahydrofuran (THF). The final concentration of THF in the medium was 0.001 (100 nM dose) to 0.00025% (25 nM dose). On days 4, 7 and 9, the medium was replaced with fresh medium containing the compounds. Each compound was tested in triplicate. On day 11, the cells were washed (phosphate-buffered saline) and 70% ethanol (1 ml) was added to each well for 30 min to fix the cells. After fixation, the cells were washed with blocking buffer (1 ml, phosphate-buffered saline+1% bovine serum albumin) and stained for CD31 according to the manufacturer's instructions (TCS Cellworks).
The extent of vessel formation was then quantified using a variation of an earlier described technique ([Newman et al, 2004]). Briefly, using a high-resolution transmissive scanner (ScanMaker 9800, Microtek, Willich, Germany), each well was scanned and saved as a tagged image format (TIF) file in Photoshop (Adobe, San Jose, CA, USA). The image was then converted to a black and white image using the photocopy filter in Photoshop ( × 2, 10 detail and 25 darkness) and saved as an uncompressed TIF file. The files were transferred to the AngioSys software (TCS Cellworks), all background and non-tubule-like structures were removed using erode ( × 1) and clean (100 pixels) functions, and the number of pixels representing vessels was counted. This technique was validated (data not shown) against the quantification techniques as described earlier ([Newman et al, 2004]).

[11] = Pharmacokinetics of STX243 in plasma (HPLC); format: in vivo, female Wistar rats; details: for clearance / MRT / Vd / half-life / Cmax: female, Wistar; for clearance / MRT / Vd / half-life: rat, plasma; for clearance: read-out: Cl (total body clearance) (converted); for MRT: read-out: MRT (mean residence time); for Vd: read-out: VD (volume of distribution); for half-life: read-out: t1/2β (elimination half-life) (converted)
[12] = test system: MCF-7wt xenograft tumours; assay: MCF-7wt xenograft tumour growth inhibition; format: in vivo, MF-1 nu/nu mice; details: 28 days, compared with vehicle-only
[13] = 40 mg kg^−1 orally daily, compared with vehicle-only

Q: Which results are given for COc1cc2c(cc1O)CC[C@@H]1[C@@H]2CC[C@]2(C)[C@@H](O)CC[C@@H]12 [2-MeOE2, 2-methoxyoestradiol, reference compound]?
A: tumour growth inhibition [1, 13]: No significant tumour inhibition; tumour growth inhibition ([1]; 75 mg kg^−1 orally daily): No significant tumour inhibition; plasma concentration 1 h after intravenous dosing ([2]; 10 mg kg^−1 intravenous, HPLC, ref Ireson et al, 2004): below the LOD; angiogenesis inhibition in Matrigel plugs ([3]; 10 mg kg^−1 dose): no significant inhibition; angiogenesis inhibition in Matrigel plugs ([3]; 50 mg kg^−1 orally): Angiogenesis inhibition was only observed

Q: Which results are given for COc1cc2c(cc1OS(N)(=O)=O)CCC1C2CC[C@@]2(C)C1CC[C@@H]2OS(N)(=O)=O (stereo partly drawn) [STX140, 2-MeOE2-3,17-O,O-bis-sulphamate]?
A: tumour growth inhibition ([1]; 20 mg kg^−1 orally daily, compared with vehicle-only): 63% and 63±7%; maximum concentration in plasma ([2]; rat, in vivo, iv): 6.6 µg/mL; oral bioavailability ([2]; rat, in vivo, po, 10 mg/kg): 85%; maximum concentration in plasma ([2]; rat, in vivo, po): 3.9 µg/mL; time of peak plasma concentration ([2]; rat, in vivo, po): 3 h; reduction of level of angiogenesis [4]: 72% and 72±5%; maximum-tolerated dose [5]: 150 mg/kg; effectiveness at inhibiting HUVEC proliferation relative to 2-MeOE2 [6]: 60 fold; difference in antiproliferative activity relative to 2-MeOE2 [7]: 10 fold; inhibition of growth of MCF-7dox40 tumours [8]: capable of inhibiting the growth of MCF-7dox40 tumours

Q: What does the source list for CCc1cc2c(cc1OS(N)(=O)=O)CCC1C2CC[C@@]2(C)C1CC[C@@H]2OS(N)(=O)=O (stereo partly drawn) [STX243, 2-ethyloestradiol-3,17-O,O-bis-sulphamate]?
A: tumour growth inhibition [1, 13]: 72% and 72±13%; reduction of level of angiogenesis [4]: 50% and 50±6%; growth of new blood vessels in Matrigel plugs ([4]; all doses investigated (10, 20 or 40 mg kg^−1 orally), P<0.001 vs bFGF-only): significantly inhibited; maximum-tolerated dose [5]: 300 mg/kg; tumour growth inhibition [9, 13]: 74±4%; vessel formation ([10]; 25 nM): only a small inhibition; vessel formation ([10]; 50 nM): significant inhibition of vessel formation; vessel (tubule) formation ([10]; 100 nM): completely blocked all tubule formation; AUC ([11]; Intravenous 10 mg kg^−1): 42 hμg ml^−1; AUMC ([11]; Intravenous 10 mg kg^−1): 267 h^2μg ml^−1; AUC ([11]; Intravenous 40 mg kg^−1): 126 hμg ml^−1; AUMC ([11]; Intravenous 40 mg kg^−1): 558 h^2μg ml^−1; AUC ([11]; Oral 10 mg kg^−1): 13 hμg ml^−1; AUMC ([11]; Oral 10 mg kg^−1): 219 h^2μg ml^−1; Bioavailability (% F) ([11]; Oral 10 mg kg^−1): 31 % F and 30.7 % F; time of highest plasma concentration ([11]; Oral 10 mg kg^−1): 4 h; AUC ([11]; Oral 40 mg kg^−1): 23 hμg ml^−1; AUMC ([11]; Oral 40 mg kg^−1): 157 h^2μg ml^−1; Bioavailability (% F) ([11]; Oral 40 mg kg^−1): 18 % F; time of highest plasma concentration ([11]; Oral 40 mg kg^−1): 8 h; clearance ([11]; Intravenous 10 mg kg^−1): 3.92 mL/min/kg; MRT ([11]; Intravenous 10 mg kg^−1): 6.28 h; Vd ([11]; Intravenous 10 mg kg^−1): 1.48 L/kg; half-life ([11]; Intravenous 10 mg kg^−1): 287 min; clearance ([11]; Intravenous 40 mg kg^−1): 5.3 mL/min/kg; MRT ([11]; Intravenous 40 mg kg^−1): 4.44 h; Vd ([11]; Intravenous 40 mg kg^−1): 1.41 L/kg; half-life ([11]; Intravenous 40 mg kg^−1): 191 min; MRT ([11]; Oral 10 mg kg^−1): 16.8 h; half-life ([11]; Oral 10 mg kg^−1): 684 min; MRT ([11]; Oral 40 mg kg^−1): 6.93 h; half-life ([11]; Oral 40 mg kg^−1): 113 min; Cmax ([11]; Intravenous 10 mg kg^−1, rat plasma): 13100 ng/mL; Cmax ([11]; Intravenous 40 mg kg^−1, rat plasma): 44800 ng/mL; Cmax ([11]; Oral 10 mg kg^−1, rat plasma): 640 ng/mL; Cmax ([11]; Oral 40 mg kg^−1, rat plasma): 1760 ng/mL; metabolism (to putative metabolite STX1813) in plasma ([11]; intravenous or oral, 10 or 40 mg kg^−1, HPLC): no significant metabolism; potency at inhibiting cell proliferation relative to STX140 ([7]; range of cell lines, ref Suzuki et al, Raobaikady et al): equipotent to STX140; difference in antiproliferative activity relative to 2-MeOE2 [7]: 10 fold; tumour growth inhibition ([12]; 40 mg kg^−1 orally daily): 87±5%

Q: Which tumour growth inhibition ([9]; 15 mg kg^−1 intravenous weekly) does the source give for CC(=O)O[C@H]1C(=O)[C@@]2(C)[C@H]([C@H](OC(=O)c3ccccc3)[C@]3(O)C[C@H](OC(=O)[C@H](O)[C@@H](NC(=O)c4ccccc4)c4ccccc4)C(C)=C1C3(C)C)[C@]1(OC(C)=O)CO[C@@H]1C[C@@H]2O [paclitaxel, reference compound] here?
A: Its tumour growth inhibition is “only STX243 was capable of significantly inhibiting the growth”.

Q: And the tumour growth inhibition ([12]; 15 mg kg^−1 intravenous weekly)?
A: Its tumour growth inhibition is 87±6%.
